In ChEMBL document CHEMBL4507316 (2021):
The source made the active and inactive calls. The rule behind the calls is not given here.

Columns and labels:
[1] = molecular target: Homeodomain-interacting protein kinase 3 (Homo sapiens) (UniProt Q9H422); assay: HIPK3 ProQinase selectivity panel; conditions: Compound concentration 1.0 uM
[2] = molecular target: Non-receptor tyrosine-protein kinase TYK2 (Homo sapiens) (UniProt P29597); assay: TYK2 ProQinase selectivity panel; conditions: Compound concentration 1.0 uM
[3] = molecular target: CDK1/Cyclin E (Homo sapiens) (UniProt P06493+P24864); assay: CDK1/CycE ProQinase selectivity panel; format: protein-complex assay; conditions: Compound concentration 1.0 uM
[4] = molecular target: Serine/threonine-protein kinase 17A (Homo sapiens) (UniProt Q9UEE5); assay: STK17A ProQinase selectivity panel; conditions: Compound concentration 1.0 uM
[5] = molecular target: Mast/stem cell growth factor receptor Kit (Homo sapiens) (UniProt P10721); assay: KIT wt ProQinase selectivity panel; conditions: Compound concentration 1.0 uM
[6] = molecular target: Protein kinase C iota type (Homo sapiens) (UniProt P41743); assay: PKC-iota ProQinase selectivity panel; conditions: Compound concentration 1.0 uM
[7] = molecular target: Discoidin domain-containing receptor 2 (Homo sapiens) (UniProt Q16832); assay: DDR2 ProQinase selectivity panel; conditions: Compound concentration 1.0 uM
[8] = molecular target: Protein kinase C alpha type (Homo sapiens) (UniProt P17252); assay: PKC-alpha ProQinase selectivity panel; conditions: Compound concentration 1.0 uM
[9] = molecular target: Sigma non-opioid intracellular receptor 1 (Homo sapiens) (UniProt Q99720); conditions: Compound concentration 10.0 uM
[10] = molecular target: Serine/threonine-protein kinase Chk1 (Homo sapiens) (UniProt O14757); assay: CHK1 ProQinase selectivity panel; conditions: Compound concentration 1.0 uM
[11] = molecular target: Serine/threonine-protein kinase mTOR (Homo sapiens) (UniProt P42345); assay: mTOR ProQinase selectivity panel; conditions: Compound concentration 1.0 uM
[12] = molecular target: Mitogen-activated protein kinase kinase kinase 9 (Homo sapiens) (UniProt P80192); assay: MAP3K9 ProQinase selectivity panel; conditions: Compound concentration 1.0 uM
[13] = molecular target: Eukaryotic elongation factor 2 kinase (Homo sapiens) (UniProt O00418); assay: EEF2K ProQinase selectivity panel; conditions: Compound concentration 1.0 uM
[14] = molecular target: Serine/threonine-protein kinase PAK 4 (Homo sapiens) (UniProt O96013); assay: PAK4 ProQinase selectivity panel; conditions: Compound concentration 1.0 uM
[15] = molecular target: Serine/threonine-protein kinase PLK3 (Homo sapiens) (UniProt Q9H4B4); assay: PLK3 ProQinase selectivity panel; conditions: Compound concentration 1.0 uM
[16] = molecular target: Serine/threonine-protein kinase PAK 2 (Homo sapiens) (UniProt Q13177); assay: PAK2 ProQinase selectivity panel; conditions: Compound concentration 1.0 uM
[17] = molecular target: Heat shock protein beta-1 (Homo sapiens, UniProt P04792); assay: Inhibition of HSP27 (Ser82) (Western blot)
[18] = tested on: Hepatocyte growth factor receptor (Homo sapiens), P08581 [Y1230C]; assay: MET Y1230C ProQinase selectivity panel; conditions: Compound concentration 1.0 uM
[19] = molecular target: Ribosomal protein S6 kinase alpha-1 (Homo sapiens) (UniProt Q15418); assay: RPS6KA1 ProQinase selectivity panel; conditions: Compound concentration 1.0 uM
[20] = molecular target: Aurora kinase C (Homo sapiens) (UniProt Q9UQB9); assay: Aurora-C ProQinase selectivity panel; conditions: Compound concentration 1.0 uM
[21] = molecular target: 5-hydroxytryptamine receptor 2A (Homo sapiens, UniProt P28223); conditions: Compound concentration 10.0 uM
[22] = molecular target: Mitogen-activated protein kinase kinase kinase 11 (Homo sapiens) (UniProt Q16584); assay: MAP3K11 ProQinase selectivity panel; conditions: Compound concentration 1.0 uM
[23] = molecular target: Myosin light chain kinase, smooth muscle (Homo sapiens) (UniProt Q15746); assay: MYLK ProQinase selectivity panel; conditions: Compound concentration 1.0 uM
[24] = molecular target: Serine/threonine-protein kinase WNK2 (Homo sapiens) (UniProt Q9Y3S1); assay: WNK2 ProQinase selectivity panel; conditions: Compound concentration 1.0 uM
[25] = molecular target: Megakaryocyte-associated tyrosine-protein kinase (Homo sapiens) (UniProt P42679); assay: MATK ProQinase selectivity panel; conditions: Compound concentration 1.0 uM
[26] = tested on: Receptor-type tyrosine-protein kinase FLT3 (Homo sapiens), P36888 [UNDEFINED MUTATION]; assay: FLT3 ITD ProQinase selectivity panel; conditions: Compound concentration 1.0 uM
[27] = tested on: Receptor-type tyrosine-protein kinase FLT3 (Homo sapiens), P36888 [D835Y]; assay: FLT3 D835Y ProQinase selectivity panel; conditions: Compound concentration 1.0 uM
[28] = molecular target: STE20/SPS1-related proline-alanine-rich protein kinase (Homo sapiens) (UniProt Q9UEW8); assay: STK39 ProQinase selectivity panel; conditions: Compound concentration 1.0 uM
[29] = molecular target: D(1B) dopamine receptor (Homo sapiens) (UniProt P21918); conditions: Compound concentration 10.0 uM
[30] = molecular target: cAMP-dependent protein kinase catalytic subunit PRKX (Homo sapiens) (UniProt P51817); assay: PRKX ProQinase selectivity panel; conditions: Compound concentration 1.0 uM
[31] = molecular target: Phosphorylase b kinase gamma catalytic chain, liver/testis isoform (Homo sapiens) (UniProt P15735); assay: PHKG2 ProQinase selectivity panel; conditions: Compound concentration 1.0 uM
[32] = molecular target: STE20-like serine/threonine-protein kinase (Homo sapiens) (UniProt Q9H2G2); assay: SLK ProQinase selectivity panel; conditions: Compound concentration 1.0 uM
[33] = molecular target: RAC-beta serine/threonine-protein kinase (Homo sapiens) (UniProt P31751); assay: AKT2 ProQinase selectivity panel; conditions: Compound concentration 1.0 uM
[34] = molecular target: Muscarinic acetylcholine receptor M2 (Homo sapiens) (UniProt P08172); conditions: Compound concentration 10.0 uM
[35] = molecular target: Serine/threonine-protein kinase Nek6 (Homo sapiens) (UniProt Q9HC98); assay: NEK6 ProQinase selectivity panel; conditions: Compound concentration 1.0 uM
[36] = molecular target: Casein kinase I isoform alpha (Homo sapiens) (UniProt P48729); assay: CK1-alpha1 ProQinase selectivity panel; conditions: Compound concentration 1.0 uM
[37] = molecular target: Mu-type opioid receptor (Homo sapiens) (UniProt P35372); conditions: Compound concentration 10.0 uM
[38] = molecular target: Ephrin type-A receptor 2 (Homo sapiens) (UniProt P29317); assay: EPHA2 ProQinase selectivity panel; conditions: Compound concentration 1.0 uM
[39] = molecular target: Platelet-derived growth factor receptor alpha (Homo sapiens) (UniProt P16234); assay: PDGFR-alpha wt ProQinase selectivity panel; conditions: Compound concentration 1.0 uM
[40] = molecular target: Testis-specific serine/threonine-protein kinase 2 (Homo sapiens) (UniProt Q96PF2); assay: TSK2 ProQinase selectivity panel; conditions: Compound concentration 1.0 uM
[41] = molecular target: Serine/threonine-protein kinase 25 (Homo sapiens) (UniProt O00506); assay: STK25 ProQinase selectivity panel; conditions: Compound concentration 1.0 uM
[42] = molecular target: Protein kinase C gamma type (Homo sapiens) (UniProt P05129); assay: PKC-gamma ProQinase selectivity panel; conditions: Compound concentration 1.0 uM
[43] = molecular target: Serine/threonine-protein kinase DCLK2 (Homo sapiens) (UniProt Q8N568); assay: DCAMKL2 ProQinase selectivity panel; conditions: Compound concentration 1.0 uM
[44] = molecular target: Ribosomal protein S6 kinase beta-1 (Homo sapiens) (UniProt P23443); assay: S6K ProQinase selectivity panel; conditions: Compound concentration 1.0 uM
[45] = molecular target: Activin receptor type-1-like (Homo sapiens) (UniProt P37023); assay: ACV-RL1 ProQinase selectivity panel; conditions: Compound concentration 1.0 uM
[46] = molecular target: Serine/threonine-protein kinase B-raf (Homo sapiens) (UniProt P15056); assay: B-RAF wt ProQinase selectivity panel; conditions: Compound concentration 1.0 uM
[47] = tested on: Epidermal growth factor receptor (Homo sapiens), P00533 [L861Q]; assay: EGF-R L861Q ProQinase selectivity panel; conditions: Compound concentration 1.0 uM
[48] = molecular target: Receptor-interacting serine/threonine-protein kinase 2 (Homo sapiens) (UniProt O43353); assay: RIPK2 ProQinase selectivity panel; conditions: Compound concentration 1.0 uM
[49] = molecular target: Serine/threonine-protein kinase MARK2 (Homo sapiens) (UniProt Q7KZI7); assay: MARK2 ProQinase selectivity panel; conditions: Compound concentration 1.0 uM
Chain of Serine/threonine-protein kinase MARK2 (Homo sapiens) (Q7KZI7 whole entry): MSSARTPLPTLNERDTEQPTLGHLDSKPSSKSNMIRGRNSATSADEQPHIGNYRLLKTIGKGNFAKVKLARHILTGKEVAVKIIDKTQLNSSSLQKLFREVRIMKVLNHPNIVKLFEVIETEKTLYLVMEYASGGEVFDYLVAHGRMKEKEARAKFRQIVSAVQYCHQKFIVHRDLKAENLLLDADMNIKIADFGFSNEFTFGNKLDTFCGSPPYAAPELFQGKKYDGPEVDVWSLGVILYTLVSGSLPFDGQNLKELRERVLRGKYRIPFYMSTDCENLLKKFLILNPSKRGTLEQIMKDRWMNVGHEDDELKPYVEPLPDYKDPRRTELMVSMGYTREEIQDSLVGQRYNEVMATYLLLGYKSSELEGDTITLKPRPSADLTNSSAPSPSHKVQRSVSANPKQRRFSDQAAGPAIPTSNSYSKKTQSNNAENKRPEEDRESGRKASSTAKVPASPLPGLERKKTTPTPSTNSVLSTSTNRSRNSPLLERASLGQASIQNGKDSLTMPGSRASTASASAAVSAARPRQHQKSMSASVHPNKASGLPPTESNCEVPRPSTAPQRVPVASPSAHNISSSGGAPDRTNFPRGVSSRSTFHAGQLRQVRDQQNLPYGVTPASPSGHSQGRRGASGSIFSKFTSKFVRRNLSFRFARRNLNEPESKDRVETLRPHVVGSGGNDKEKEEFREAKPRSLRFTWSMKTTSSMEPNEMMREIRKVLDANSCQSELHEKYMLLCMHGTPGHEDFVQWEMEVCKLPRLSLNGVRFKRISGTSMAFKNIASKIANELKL

Chain of 5-hydroxytryptamine receptor 2A (P28223 whole entry): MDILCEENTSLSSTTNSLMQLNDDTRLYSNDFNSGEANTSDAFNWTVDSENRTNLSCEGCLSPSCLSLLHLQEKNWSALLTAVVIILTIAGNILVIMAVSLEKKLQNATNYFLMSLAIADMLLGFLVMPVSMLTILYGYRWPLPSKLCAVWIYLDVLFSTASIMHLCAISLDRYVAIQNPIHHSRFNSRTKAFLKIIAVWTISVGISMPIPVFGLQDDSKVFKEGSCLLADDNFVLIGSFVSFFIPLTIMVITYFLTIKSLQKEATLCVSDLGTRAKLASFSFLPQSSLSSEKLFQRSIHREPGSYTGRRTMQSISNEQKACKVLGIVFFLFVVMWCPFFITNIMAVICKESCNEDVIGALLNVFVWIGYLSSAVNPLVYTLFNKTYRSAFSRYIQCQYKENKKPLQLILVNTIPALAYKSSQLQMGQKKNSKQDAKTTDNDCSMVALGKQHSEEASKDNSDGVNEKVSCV
Chain of Serine/threonine-protein kinase WNK2 (Homo sapiens) (Q9Y3S1 whole entry): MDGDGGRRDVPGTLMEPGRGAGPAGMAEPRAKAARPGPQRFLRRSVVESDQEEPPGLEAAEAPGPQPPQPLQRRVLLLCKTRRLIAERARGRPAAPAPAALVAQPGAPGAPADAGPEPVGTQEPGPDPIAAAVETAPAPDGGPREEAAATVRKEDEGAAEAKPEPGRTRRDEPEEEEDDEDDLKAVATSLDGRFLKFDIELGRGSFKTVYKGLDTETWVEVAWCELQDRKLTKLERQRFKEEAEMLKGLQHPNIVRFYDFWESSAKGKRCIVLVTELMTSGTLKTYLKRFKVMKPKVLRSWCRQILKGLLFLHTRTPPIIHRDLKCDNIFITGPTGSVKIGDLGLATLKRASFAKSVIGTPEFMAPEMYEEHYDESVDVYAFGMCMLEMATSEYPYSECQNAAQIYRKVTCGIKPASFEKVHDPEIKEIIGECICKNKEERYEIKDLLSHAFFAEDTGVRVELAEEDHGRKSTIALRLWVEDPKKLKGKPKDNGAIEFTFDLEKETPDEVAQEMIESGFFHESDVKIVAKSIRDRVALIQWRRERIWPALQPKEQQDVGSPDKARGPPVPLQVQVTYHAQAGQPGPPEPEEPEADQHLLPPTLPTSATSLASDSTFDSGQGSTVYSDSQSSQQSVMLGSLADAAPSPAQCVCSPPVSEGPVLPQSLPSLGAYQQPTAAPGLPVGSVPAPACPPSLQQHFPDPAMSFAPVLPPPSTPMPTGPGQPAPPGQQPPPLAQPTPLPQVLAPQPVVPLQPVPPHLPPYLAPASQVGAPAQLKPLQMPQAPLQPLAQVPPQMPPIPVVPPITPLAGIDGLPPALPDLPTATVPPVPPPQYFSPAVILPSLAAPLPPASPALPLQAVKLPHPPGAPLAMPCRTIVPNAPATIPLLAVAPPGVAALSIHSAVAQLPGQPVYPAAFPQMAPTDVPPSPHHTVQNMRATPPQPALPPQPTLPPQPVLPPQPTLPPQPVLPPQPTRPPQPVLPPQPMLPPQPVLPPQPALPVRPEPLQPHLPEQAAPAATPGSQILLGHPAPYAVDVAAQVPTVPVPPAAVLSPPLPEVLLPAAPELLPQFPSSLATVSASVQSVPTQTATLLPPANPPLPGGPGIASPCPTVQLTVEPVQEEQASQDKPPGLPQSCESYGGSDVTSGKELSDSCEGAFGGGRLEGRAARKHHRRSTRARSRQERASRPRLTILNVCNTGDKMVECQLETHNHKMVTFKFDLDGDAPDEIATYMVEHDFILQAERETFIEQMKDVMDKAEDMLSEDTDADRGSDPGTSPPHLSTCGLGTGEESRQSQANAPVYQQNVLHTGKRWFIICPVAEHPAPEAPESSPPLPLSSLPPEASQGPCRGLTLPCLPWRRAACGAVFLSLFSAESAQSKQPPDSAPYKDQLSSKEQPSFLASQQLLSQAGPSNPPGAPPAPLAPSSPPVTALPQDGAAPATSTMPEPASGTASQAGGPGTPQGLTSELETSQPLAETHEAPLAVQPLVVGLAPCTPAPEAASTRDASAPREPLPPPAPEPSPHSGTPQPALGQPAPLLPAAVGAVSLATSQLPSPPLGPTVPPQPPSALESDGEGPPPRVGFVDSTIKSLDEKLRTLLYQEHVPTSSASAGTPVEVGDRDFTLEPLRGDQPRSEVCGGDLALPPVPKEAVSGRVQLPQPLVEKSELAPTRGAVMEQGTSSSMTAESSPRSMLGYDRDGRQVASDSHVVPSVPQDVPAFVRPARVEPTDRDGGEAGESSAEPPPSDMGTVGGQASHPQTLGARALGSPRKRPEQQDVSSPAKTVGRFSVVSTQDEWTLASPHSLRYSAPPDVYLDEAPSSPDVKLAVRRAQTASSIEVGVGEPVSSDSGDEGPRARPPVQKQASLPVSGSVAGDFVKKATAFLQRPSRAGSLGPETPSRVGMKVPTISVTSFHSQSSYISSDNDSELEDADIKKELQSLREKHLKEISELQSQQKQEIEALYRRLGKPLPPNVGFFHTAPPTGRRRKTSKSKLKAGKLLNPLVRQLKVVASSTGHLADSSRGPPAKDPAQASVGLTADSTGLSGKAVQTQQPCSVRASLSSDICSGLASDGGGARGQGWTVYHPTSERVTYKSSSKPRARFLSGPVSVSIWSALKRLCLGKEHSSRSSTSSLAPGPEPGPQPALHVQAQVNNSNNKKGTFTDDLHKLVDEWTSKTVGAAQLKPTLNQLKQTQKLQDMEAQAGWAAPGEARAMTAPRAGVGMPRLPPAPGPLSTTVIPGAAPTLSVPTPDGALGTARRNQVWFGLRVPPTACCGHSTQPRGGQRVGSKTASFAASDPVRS
Chain of Casein kinase I isoform alpha (Homo sapiens) (P48729 2-337 limits assumed): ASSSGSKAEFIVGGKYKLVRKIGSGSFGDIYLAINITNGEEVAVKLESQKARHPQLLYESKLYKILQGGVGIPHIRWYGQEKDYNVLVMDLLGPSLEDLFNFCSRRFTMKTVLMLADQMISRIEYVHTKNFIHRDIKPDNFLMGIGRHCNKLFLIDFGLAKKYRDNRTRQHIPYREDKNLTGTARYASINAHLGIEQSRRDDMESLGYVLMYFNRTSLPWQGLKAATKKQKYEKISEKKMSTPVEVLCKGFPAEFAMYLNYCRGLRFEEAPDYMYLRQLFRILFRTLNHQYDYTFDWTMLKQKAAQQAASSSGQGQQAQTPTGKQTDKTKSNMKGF
Chain of RAC-beta serine/threonine-protein kinase (Homo sapiens) (P31751 whole entry): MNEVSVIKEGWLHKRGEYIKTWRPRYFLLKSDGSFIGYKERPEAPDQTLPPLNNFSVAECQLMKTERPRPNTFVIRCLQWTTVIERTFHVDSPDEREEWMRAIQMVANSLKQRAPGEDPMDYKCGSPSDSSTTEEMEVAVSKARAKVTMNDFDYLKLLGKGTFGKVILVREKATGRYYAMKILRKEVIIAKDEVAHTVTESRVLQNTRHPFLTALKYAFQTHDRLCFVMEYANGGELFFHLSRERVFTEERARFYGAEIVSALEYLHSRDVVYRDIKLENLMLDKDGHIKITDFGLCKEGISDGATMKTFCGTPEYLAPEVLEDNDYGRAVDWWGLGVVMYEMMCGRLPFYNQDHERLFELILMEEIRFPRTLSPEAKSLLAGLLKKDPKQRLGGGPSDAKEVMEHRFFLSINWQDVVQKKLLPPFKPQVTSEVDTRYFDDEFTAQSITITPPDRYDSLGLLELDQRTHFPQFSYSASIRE
Chain of Serine/threonine-protein kinase PLK3 (Homo sapiens) (Q9H4B4 whole entry, looked up): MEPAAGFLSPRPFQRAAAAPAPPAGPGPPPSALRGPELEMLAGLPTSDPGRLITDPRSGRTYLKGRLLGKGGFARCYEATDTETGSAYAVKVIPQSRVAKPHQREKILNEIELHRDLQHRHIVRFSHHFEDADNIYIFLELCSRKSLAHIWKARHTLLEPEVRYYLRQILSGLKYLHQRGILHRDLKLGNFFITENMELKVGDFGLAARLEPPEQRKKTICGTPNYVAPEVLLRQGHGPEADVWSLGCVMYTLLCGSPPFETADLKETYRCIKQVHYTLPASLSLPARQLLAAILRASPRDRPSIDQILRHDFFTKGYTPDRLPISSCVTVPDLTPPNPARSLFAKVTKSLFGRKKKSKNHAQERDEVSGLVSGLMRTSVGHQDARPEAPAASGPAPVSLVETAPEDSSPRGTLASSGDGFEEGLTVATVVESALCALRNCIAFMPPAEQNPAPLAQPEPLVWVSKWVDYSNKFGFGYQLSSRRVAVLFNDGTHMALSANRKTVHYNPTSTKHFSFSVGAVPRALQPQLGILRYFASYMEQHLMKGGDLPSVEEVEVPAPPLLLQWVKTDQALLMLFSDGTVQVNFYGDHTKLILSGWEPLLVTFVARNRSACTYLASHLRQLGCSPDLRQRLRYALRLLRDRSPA

- % Residual activity with Skepinone-L [1]: 91%
- % Residual activity with Skepinone-L [2]: 96%
- % Residual activity with Skepinone-L [3]: 87%
- % Residual activity with Skepinone-L [4]: 77%
- % Residual activity with Skepinone-L [5]: 111%
- % Residual activity with Skepinone-L [6]: 91%
- % Residual activity with Skepinone-L [7]: 102%
- % Residual activity with Skepinone-L [8]: 96%
- inhibition [9]: 48.5%
- % Residual activity with Skepinone-L [10]: 94%
- % Residual activity with Skepinone-L [11]: 97%
- % Residual activity with Skepinone-L [12]: 90%
- % Residual activity with Skepinone-L [13]: 88%
- % Residual activity with Skepinone-L [14]: 88%
- % Residual activity with Skepinone-L [15]: 99%
- % Residual activity with Skepinone-L [16]: 83%
- IC50 [17]: 25 nM (active)
- % Residual activity with Skepinone-L [18]: 97%
- % Residual activity with Skepinone-L [19]: 89%
- % Residual activity with Skepinone-L [20]: 85%
- inhibition [21]: 73.1%
- % Residual activity with Skepinone-L [22]: 114%
- % Residual activity with Skepinone-L [23]: 78%
- % Residual activity with Skepinone-L [24]: 95%
- % Residual activity with Skepinone-L [25]: 111%
- % Residual activity with Skepinone-L [26]: 101%
- % Residual activity with Skepinone-L [27]: 101%
- % Residual activity with Skepinone-L [28]: 53%
- inhibition [29]: 21%
- % Residual activity with Skepinone-L [30]: 79%
- % Residual activity with Skepinone-L [31]: 73%
- % Residual activity with Skepinone-L [32]: 39%
- % Residual activity with Skepinone-L [33]: 121%
- inhibition [34]: 40%
- % Residual activity with Skepinone-L [35]: 97%
- % Residual activity with Skepinone-L [36]: 97%
- inhibition [37]: 22.5%
- % Residual activity with Skepinone-L [38]: 119%
- % Residual activity with Skepinone-L [39]: 91%
- % Residual activity with Skepinone-L [40]: 82%
- % Residual activity with Skepinone-L [41]: 100%
- % Residual activity with Skepinone-L [42]: 99%
- % Residual activity with Skepinone-L [43]: 83%
- % Residual activity with Skepinone-L [44]: 85%
- % Residual activity with Skepinone-L [45]: 105%
- % Residual activity with Skepinone-L [46]: 112%
- % Residual activity with Skepinone-L [47]: 94%
- % Residual activity with Skepinone-L [48]: 77%
- % Residual activity with Skepinone-L [49]: 105%
Compound: O=C1c2ccc(Nc3ccc(F)cc3F)cc2CCc2ccc(OC[C@H](O)CO)cc21 [Skepinone-L]
